Data reported in the NIST ThermoML archive (doi:10.1021/je7001013).

Columns and labels:
[1] = refractive index (Na D-line) (dimensionless); xn = mol fraction of the nth substance listed; conditions: 101 kPa, Liquid
[2] = xn = mol fraction of the nth substance listed
[3] = refractive index (Na D-line) (dimensionless); conditions: 101.33 kPa, Liquid

CC[S+]([O-])CC [diethyl sulfoxide] + O
Conditions | refractive index, [1] | surface tension liquid-gas, [2] [mN/m]
298.15 K, x1 = 0.0099 | 1.3415 | 65.5
298.15 K, x1 = 0.0207 | – | 62.5
298.15 K, x1 = 0.0513 | 1.3735 | 55.4
298.15 K, x1 = 0.1001 | 1.399 | 50.9
298.15 K, x1 = 0.1999 | 1.43 | 46
298.15 K, x1 = 0.2999 | 1.446 | 42.8
298.15 K, x1 = 0.4091 | 1.457 | –
298.15 K, x1 = 0.4908 | – | 40.4
298.15 K, x1 = 0.5189 | 1.458 | –
298.15 K, x1 = 0.5803 | 1.4605 | –
298.15 K, x1 = 0.7123 | 1.4645 | 37.6
298.15 K, x1 = 0.7741 | 1.466 | –
303.15 K, x1 = 0.0099 | 1.332 | 64.8
303.15 K, x1 = 0.0207 | – | 61.5
303.15 K, x1 = 0.0513 | 1.3675 | 54.9
303.15 K, x1 = 0.1001 | 1.373 | 50.2
303.15 K, x1 = 0.1999 | 1.428 | 45.2
303.15 K, x1 = 0.2999 | 1.4445 | 42
303.15 K, x1 = 0.4091 | 1.4555 | –
303.15 K, x1 = 0.4908 | – | 39.8
303.15 K, x1 = 0.5189 | 1.457 | –
303.15 K, x1 = 0.5803 | 1.4585 | –
303.15 K, x1 = 0.7123 | 1.463 | 37.1
303.15 K, x1 = 0.7741 | 1.464 | –
308.15 K, x1 = 0.0099 | 1.3315 | 64.1
308.15 K, x1 = 0.0207 | – | 60.4
308.15 K, x1 = 0.0513 | 1.3685 | 54
308.15 K, x1 = 0.1001 | 1.372 | 49.5
308.15 K, x1 = 0.1999 | 1.4265 | 44.2
308.15 K, x1 = 0.2999 | 1.443 | 41.9
308.15 K, x1 = 0.4091 | 1.453 | –
308.15 K, x1 = 0.4908 | – | 39.3
308.15 K, x1 = 0.5189 | 1.455 | –
308.15 K, x1 = 0.5803 | 1.4565 | –
308.15 K, x1 = 0.7123 | 1.4615 | 37
308.15 K, x1 = 0.7741 | 1.462 | –
313.15 K, x1 = 0.0099 | – | 62.8
313.15 K, x1 = 0.0207 | – | 59.3
313.15 K, x1 = 0.0513 | – | 53.1
313.15 K, x1 = 0.1001 | – | 48.4
313.15 K, x1 = 0.1999 | – | 47.1
313.15 K, x1 = 0.2999 | – | 44.3
313.15 K, x1 = 0.4908 | – | 38.6
313.15 K, x1 = 0.7123 | – | 36.5
318.15 K, x1 = 0.0099 | – | 61.8
318.15 K, x1 = 0.0207 | – | 58.4
318.15 K, x1 = 0.0513 | – | 52.4
318.15 K, x1 = 0.1001 | – | 47.7
318.15 K, x1 = 0.1999 | – | 46.1
318.15 K, x1 = 0.2999 | – | 43.2
318.15 K, x1 = 0.4908 | – | 38
318.15 K, x1 = 0.7123 | – | 35.7
323.15 K, x1 = 0.0099 | – | 60.8
323.15 K, x1 = 0.0207 | – | 56.8
323.15 K, x1 = 0.0513 | – | 50.5
323.15 K, x1 = 0.1001 | – | 46.5
323.15 K, x1 = 0.1999 | – | 45.3
323.15 K, x1 = 0.2999 | – | 41.6
323.15 K, x1 = 0.4908 | – | 37.3
323.15 K, x1 = 0.7123 | – | 35
328.15 K, x1 = 0.0099 | – | 59.9
328.15 K, x1 = 0.0207 | – | 56.4
328.15 K, x1 = 0.0513 | – | 49.7
328.15 K, x1 = 0.1001 | – | 45.7
328.15 K, x1 = 0.1999 | – | 43.4
328.15 K, x1 = 0.2999 | – | 40.7
328.15 K, x1 = 0.4908 | – | 36.6
328.15 K, x1 = 0.7123 | – | 34.4

CCCS(=O)CCC [dipropyl sulfoxide]
[3]
Conditions | refractive index
298.15 K | 1.4595
303.15 K | 1.458
308.15 K | 1.456

Conditions | surface tension liquid-gas [mN/m]
298.15 K | 32.6
303.15 K | 32
308.15 K | 31.5
313.15 K | 31
318.15 K | 30.5
323.15 K | 29.9
328.15 K | 29.4

CCCS(=O)CCC [dipropyl sulfoxide] + O
Conditions | refractive index, [1] | surface tension liquid-gas, [2] [mN/m]
298.15 K, x1 = 0.0105 | 1.344 | 52.3
298.15 K, x1 = 0.01985 | 1.3516 | –
298.15 K, x1 = 0.0199 | – | 47.4
298.15 K, x1 = 0.0469 | 1.374 | 42.2
298.15 K, x1 = 0.0998 | 1.4009 | 39.6
298.15 K, x1 = 0.2019 | 1.4305 | 37.5
298.15 K, x1 = 0.2809 | 1.4395 | 37.2
298.15 K, x1 = 0.3975 | 1.446 | 35.8
298.15 K, x1 = 0.5001 | – | 35.4
298.15 K, x1 = 0.5049 | 1.4502 | –
298.15 K, x1 = 0.6818 | 1.455 | 34.3
298.15 K, x1 = 0.9002 | 1.458 | –
303.15 K, x1 = 0.0105 | 1.343 | 51.1
303.15 K, x1 = 0.01985 | 1.351 | –
303.15 K, x1 = 0.0199 | – | 46.4
303.15 K, x1 = 0.0469 | 1.3725 | 41.5
303.15 K, x1 = 0.0998 | 1.399 | 38.9
303.15 K, x1 = 0.2019 | 1.4285 | 37
303.15 K, x1 = 0.2809 | 1.4375 | 36.5
303.15 K, x1 = 0.3975 | 1.4455 | 35.2
303.15 K, x1 = 0.5001 | – | 34.9
303.15 K, x1 = 0.5049 | 1.4495 | –
303.15 K, x1 = 0.6818 | 1.454 | 34.2
303.15 K, x1 = 0.9002 | 1.4555 | –
308.15 K, x1 = 0.0105 | 1.342 | 49.9
308.15 K, x1 = 0.01985 | 1.3506 | –
308.15 K, x1 = 0.0199 | – | 45.3
308.15 K, x1 = 0.0469 | 1.3711 | 40.7
308.15 K, x1 = 0.0998 | 1.398 | 38.1
308.15 K, x1 = 0.2019 | 1.4245 | 36.5
308.15 K, x1 = 0.2809 | 1.435 | 36
308.15 K, x1 = 0.3975 | 1.4445 | 34.5
308.15 K, x1 = 0.5001 | – | 34.3
308.15 K, x1 = 0.5049 | 1.4486 | –
308.15 K, x1 = 0.6818 | 1.452 | 33.5
308.15 K, x1 = 0.9002 | 1.454 | –
313.15 K, x1 = 0.0105 | – | 48.8
313.15 K, x1 = 0.0199 | – | 44.4
313.15 K, x1 = 0.0469 | – | 40
313.15 K, x1 = 0.0998 | – | 37.3
313.15 K, x1 = 0.2019 | – | 35.9
313.15 K, x1 = 0.2809 | – | 35
313.15 K, x1 = 0.3975 | – | 34.1
313.15 K, x1 = 0.5001 | – | 33.8
313.15 K, x1 = 0.6818 | – | 32.9
318.15 K, x1 = 0.0105 | – | 47.6
318.15 K, x1 = 0.0199 | – | 44.3
318.15 K, x1 = 0.0469 | – | 39.3
318.15 K, x1 = 0.0998 | – | 36.6
318.15 K, x1 = 0.2019 | – | 35
318.15 K, x1 = 0.2809 | – | 34.4
318.15 K, x1 = 0.3975 | – | 33.4
318.15 K, x1 = 0.5001 | – | 33.3
318.15 K, x1 = 0.6818 | – | 32.2
323.15 K, x1 = 0.0105 | – | 46.6
323.15 K, x1 = 0.0199 | – | 43.2
323.15 K, x1 = 0.0469 | – | 38.5
323.15 K, x1 = 0.0998 | – | 35.7
323.15 K, x1 = 0.2019 | – | 34.4
323.15 K, x1 = 0.2809 | – | 33.8
323.15 K, x1 = 0.3975 | – | 32.8
323.15 K, x1 = 0.5001 | – | 32.7
323.15 K, x1 = 0.6818 | – | 31.6
328.15 K, x1 = 0.0105 | – | 45.6
328.15 K, x1 = 0.0199 | – | 42.2
328.15 K, x1 = 0.0469 | – | 37.8
328.15 K, x1 = 0.0998 | – | 35
328.15 K, x1 = 0.2019 | – | 33.7
328.15 K, x1 = 0.2809 | – | 33.1
328.15 K, x1 = 0.3975 | – | 32.2
328.15 K, x1 = 0.5001 | – | 32.1
328.15 K, x1 = 0.6818 | – | 30.8
